Experiments:
[1] = molecular target: Carbonic anhydrase 2 (Homo sapiens, UniProt P00918); experiment: Inhibition of human carbonic anhydrase 2 assessed as inhibitory constant incubated for 15 mins by phenol red dye based stopped flow assay
[2] = molecular target: T1, Carbonic anhydrase 12 (Homo sapiens, UniProt O43570); experiment: Inhibition of human carbonic anhydrase 12 assessed as inhibitory constant incubated for 15 mins by phenol red dye based stopped flow assay
[3] = molecular target: Carbonic anhydrase 1 (Homo sapiens, UniProt P00915); experiment: Inhibition of human carbonic anhydrase 1 assessed as inhibitory constant incubated for 15 mins by phenol red dye based stopped flow assay
[4] = molecular target: T2, Carbonic anhydrase 9 (Homo sapiens, UniProt Q16790); experiment: Inhibition of human carbonic anhydrase 9 assessed as inhibitory constant incubated for 15 mins by phenol red dye based stopped flow assay
[5] = molecular target: T1, Carbonic anhydrase 12; details: at 1 µM
Description: Inhibition of human carbonic anhydrase 12 assessed as reduction in CO2 hydration at 10^-6 M incubated for 15 mins by phenol red dye based stopped flow assay relative to control (Rvb = 0 %)

[6] = molecular target: T1, Carbonic anhydrase 12; details: at 0.1 µM
Description: Inhibition of human carbonic anhydrase 12 assessed as reduction in CO2 hydration at 10^-7 M incubated for 15 mins by phenol red dye based stopped flow assay relative to control (Rvb = 0 %)

[7] = molecular target: T1, Carbonic anhydrase 12; details: at 0.001 µM
[8] = molecular target: T2, Carbonic anhydrase 9; details: at 1 µM
Description: Inhibition of human carbonic anhydrase 9 assessed as reduction in CO2 hydration at 10^-6 M incubated for 15 mins by phenol red dye based stopped flow assay relative to control (Rvb = 0 %)

[9] = molecular target: T2, Carbonic anhydrase 9; details: at 0.1 µM
Description: Inhibition of human carbonic anhydrase 9 assessed as reduction in CO2 hydration at 10^-7 M incubated for 15 mins by phenol red dye based stopped flow assay relative to control (Rvb = 0 %)

[10] = molecular target: T2, Carbonic anhydrase 9; details: at 0.001 µM
Description: Inhibition of human carbonic anhydrase 9 assessed as reduction in CO2 hydration at 10^-9 M incubated for 15 mins by phenol red dye based stopped flow assay relative to control (Rvb = 0 %)

[11] = molecular target: T1, Carbonic anhydrase 12; details: at 0.01 µM
[12] = molecular target: T2, Carbonic anhydrase 9; details: at 0.01 µM
Description: Inhibition of human carbonic anhydrase 9 assessed as reduction in CO2 hydration at 10^-8 M incubated for 15 mins by phenol red dye based stopped flow assay relative to control (Rvb = 0 %)

T1 sequence (O43570 whole entry): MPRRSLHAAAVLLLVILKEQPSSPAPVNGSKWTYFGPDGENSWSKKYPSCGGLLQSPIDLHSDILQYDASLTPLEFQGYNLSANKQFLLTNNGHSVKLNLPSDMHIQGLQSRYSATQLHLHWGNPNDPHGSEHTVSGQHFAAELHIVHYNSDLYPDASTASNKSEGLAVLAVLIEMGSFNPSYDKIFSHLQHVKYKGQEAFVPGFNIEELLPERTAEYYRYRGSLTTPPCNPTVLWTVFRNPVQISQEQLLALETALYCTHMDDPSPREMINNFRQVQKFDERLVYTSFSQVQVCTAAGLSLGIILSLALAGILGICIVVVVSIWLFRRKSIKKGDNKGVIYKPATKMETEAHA
Sequence of Carbonic anhydrase 1 (P00915 whole entry): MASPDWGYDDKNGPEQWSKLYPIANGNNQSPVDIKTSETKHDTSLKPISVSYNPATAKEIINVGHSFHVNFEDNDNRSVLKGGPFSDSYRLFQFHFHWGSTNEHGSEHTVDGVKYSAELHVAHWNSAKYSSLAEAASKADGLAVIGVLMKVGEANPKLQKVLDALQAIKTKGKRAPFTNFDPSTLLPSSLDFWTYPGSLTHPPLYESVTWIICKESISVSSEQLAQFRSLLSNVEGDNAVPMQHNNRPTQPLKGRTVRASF

CC(=O)N1N=C(c2cccc(OS(N)(=O)=O)c2)CC1c1cccc(Cl)c1 (stereo not given)
Ki [1]: 56.9 nM | Ki [2]: 44.6 nM | Ki [3]: 805 nM | Ki [4]: 7.3 nM

CC(=O)N1N=C(c2ccc(Cl)c(Cl)c2)CC1c1ccc(OS(N)(=O)=O)cc1 (stereo not given)
Ki [1]: 27.6 nM | Ki [2]: 12.9 nM | Ki [3]: 2900 nM | Ki [4]: 7.7 nM

CC(=O)N1N=C(c2cccc(OS(N)(=O)=O)c2)CC1c1ccc(Cl)cc1 (stereo not given)
Ki [1]: 14.7 nM | Ki [2]: 9.3 nM | Ki [3]: 438 nM | Ki [4]: 6.9 nM

CC(=O)N1N=C(c2cccc(OS(N)(=O)=O)c2)CC1c1ccc(F)cc1 (stereo not given)
Ki [1]: 38 nM | Ki [2]: 13.5 nM | Ki [3]: 67.4 nM | Ki [4]: 8.4 nM

CC(=O)N1N=C(c2ccc(F)cc2)CC1c1cccc(OS(N)(=O)=O)c1 (stereo not given)
Ki [1]: 6.5 nM | Ki [3]: 5230 nM | Ki [4]: 15.8 nM

CC(=O)N1N=C(c2ccc(Cl)cc2Cl)CC1c1ccc(OS(N)(=O)=O)cc1 (stereo not given)
Ki [1]: 5.3 nM | Ki [2]: 42 nM | Ki [3]: 3520 nM | Ki [4]: 49.9 nM

CC(=O)N1N=C(c2ccc(Cl)c(Cl)c2)CC1c1cccc(OS(N)(=O)=O)c1 (stereo not given)
Ki [1]: 54.8 nM | Ki [2]: 85.2 nM | Ki [3]: 8170 nM | Ki [4]: 15.5 nM

COc1ccc(C2CC(c3ccc(OS(N)(=O)=O)cc3)=NN2C(C)=O)cc1 (stereo not given)
Ki [1]: 5.3 nM | Ki [2]: 42.6 nM | Ki [3]: 1610 nM | Ki [4]: 25 nM

CC(=O)N1N=C(c2ccccc2)CC1c1ccc(OS(N)(=O)=O)cc1 (stereo not given)
inhibition [5]: 89% | Ki [1]: 44.8 nM | Ki [2]: 10.6 nM | inhibition [6]: 77% | inhibition [7]: 15% | Ki [3]: 645 nM | Ki [4]: 45.1 nM | inhibition [8]: 81% | inhibition [9]: 69% | inhibition [10]: 16% | inhibition [11]: 49% | inhibition [12]: 42%

CC(=O)N1N=C(c2cccc(OS(N)(=O)=O)c2)CC1c1ccc(Cl)cc1Cl (stereo not given)
Ki [1]: 195 nM | Ki [2]: 33.8 nM | Ki [3]: 1410 nM | Ki [4]: 13.8 nM

CC(=O)N1N=C(c2ccc(OS(N)(=O)=O)cc2)CC1c1ccc(Cl)cc1Cl (stereo not given)
Ki [1]: 9.3 nM | Ki [2]: 26.2 nM | Ki [3]: 3750 nM | Ki [4]: 11.2 nM

CC(=O)N1N=C(c2ccc(OS(N)(=O)=O)cc2)CC1c1cc(Cl)ccc1Cl (stereo not given)
Ki [1]: 12.4 nM | Ki [3]: 4750 nM | Ki [4]: 25.5 nM

CC(=O)N1N=C(c2cccc(OS(N)(=O)=O)c2)CC1c1cccc2ccccc12 (stereo not given)
Ki [1]: 216 nM | Ki [2]: 463 nM | Ki [3]: 2240 nM | Ki [4]: 51.1 nM

CC(=O)N1N=C(c2cccc(OS(N)(=O)=O)c2)CC1c1ccccc1Cl (stereo not given)
Ki [1]: 90.1 nM | Ki [2]: 74.4 nM | Ki [3]: 940 nM | Ki [4]: 43.6 nM

CC(=O)N1N=C(c2ccc(C)cc2)CC1c1ccc(OS(N)(=O)=O)cc1 (stereo not given)
Ki [1]: 9.9 nM | Ki [2]: 7.7 nM | Ki [3]: 2340 nM | Ki [4]: 22.4 nM

CC(=O)N1N=C(c2cccc(OS(N)(=O)=O)c2)CC1c1ccccc1 (stereo not given)
Ki [1]: 39.4 nM | Ki [2]: 55.1 nM | Ki [3]: 188 nM | Ki [4]: 29.9 nM

CC(=O)N1N=C(c2ccc([N+](=O)[O-])cc2)CC1c1ccc(OS(N)(=O)=O)cc1 (stereo not given)
Ki [1]: 9.5 nM | Ki [2]: 0.88 nM | Ki [3]: 3820 nM | Ki [4]: 15 nM

CC(=O)N1N=C(c2ccc(Cl)cc2Cl)CC1c1cccc(OS(N)(=O)=O)c1 (stereo not given)
Ki [1]: 12 nM | Ki [2]: 30.8 nM | Ki [3]: 6940 nM | Ki [4]: 48.7 nM

CC(=O)N1N=C(c2cccc(OS(N)(=O)=O)c2)CC1c1ccc(C)cc1 (stereo not given)
Ki [1]: 71.2 nM | Ki [2]: 55.9 nM | Ki [3]: 558 nM | Ki [4]: 29.4 nM

CC(=O)N1N=C(c2ccc(OS(N)(=O)=O)cc2)CC1c1ccccc1Cl (stereo not given)
Ki [1]: 9 nM | Ki [3]: 8250 nM | Ki [4]: 25.9 nM

Reference: ChEMBL document CHEMBL4359908, “Structure-activity relationship with pyrazoline-based aromatic sulfamates as carbonic anhydrase isoforms I, II, IX and XII inhibitors: Synthesis and biological evaluation” (Eur J Med Chem, 2019)
